Measurements published in US10023570B2 (Array BioPharma, Inc., priority 2015, dated 2018).
Counter-ions that a name gives are not always drawn.

Target: human KDR protein in HEK-293 cells (Homo sapiens (Human), UniProt P35968)
Assay: KDR Cell Assay (phospho-KDR in HEK-293 cells expressing inducible KDR)
Type: cell-based
Conditions: pKDR Cell HEK 10% FBS IC50, HEK-293 cells expressing inducible KDR, VEGF stimulated
In short: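 HEK-293 cells with inducible human KDR were treated with compound for 1 h in DMEM (0.25% DMSO final), then lysed. Phospho-KDR was quantified by Meso Scale immunoassay, expressed as percent of control, and IC50 taken where a 4-parameter logistic fit crossed 50 POC.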

Chain of human KDR protein in HEK-293 cells (P35968 20-1356): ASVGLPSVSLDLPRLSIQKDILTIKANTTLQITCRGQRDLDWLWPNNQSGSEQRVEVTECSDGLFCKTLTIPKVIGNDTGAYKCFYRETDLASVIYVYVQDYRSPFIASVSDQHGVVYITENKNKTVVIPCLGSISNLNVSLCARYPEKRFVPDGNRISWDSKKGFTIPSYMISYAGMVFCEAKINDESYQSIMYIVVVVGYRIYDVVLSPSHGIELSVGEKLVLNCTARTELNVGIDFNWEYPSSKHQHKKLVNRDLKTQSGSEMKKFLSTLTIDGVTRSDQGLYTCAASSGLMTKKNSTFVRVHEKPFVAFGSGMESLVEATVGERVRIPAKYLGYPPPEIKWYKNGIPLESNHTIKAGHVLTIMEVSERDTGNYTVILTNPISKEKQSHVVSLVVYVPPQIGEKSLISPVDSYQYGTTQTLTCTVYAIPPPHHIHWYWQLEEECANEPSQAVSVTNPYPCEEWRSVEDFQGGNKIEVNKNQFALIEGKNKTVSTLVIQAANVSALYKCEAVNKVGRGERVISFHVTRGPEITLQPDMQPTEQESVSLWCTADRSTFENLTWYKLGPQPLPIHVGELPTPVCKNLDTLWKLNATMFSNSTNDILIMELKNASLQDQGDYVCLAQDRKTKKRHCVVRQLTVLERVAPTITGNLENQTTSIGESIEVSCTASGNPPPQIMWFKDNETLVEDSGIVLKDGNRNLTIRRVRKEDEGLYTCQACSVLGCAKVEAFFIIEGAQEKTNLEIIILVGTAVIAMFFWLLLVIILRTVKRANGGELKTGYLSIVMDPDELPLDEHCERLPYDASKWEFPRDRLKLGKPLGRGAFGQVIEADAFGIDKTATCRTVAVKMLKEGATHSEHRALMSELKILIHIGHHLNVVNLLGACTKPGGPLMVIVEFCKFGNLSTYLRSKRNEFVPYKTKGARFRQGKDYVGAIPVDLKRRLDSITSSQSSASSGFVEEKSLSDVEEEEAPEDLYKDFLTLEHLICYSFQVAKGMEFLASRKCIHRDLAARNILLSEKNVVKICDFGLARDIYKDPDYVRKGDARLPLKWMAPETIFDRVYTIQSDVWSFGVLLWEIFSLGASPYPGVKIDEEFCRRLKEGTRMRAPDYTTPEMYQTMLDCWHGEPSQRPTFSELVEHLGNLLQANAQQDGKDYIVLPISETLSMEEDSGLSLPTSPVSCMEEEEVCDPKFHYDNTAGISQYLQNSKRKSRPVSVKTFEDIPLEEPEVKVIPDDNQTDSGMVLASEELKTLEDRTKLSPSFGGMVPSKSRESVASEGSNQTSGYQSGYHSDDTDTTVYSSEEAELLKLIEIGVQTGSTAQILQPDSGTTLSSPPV

IC50 [nM] | Structure (SMILES) | IC50 (10% FBS) [nM]
217 | N#Cc1cnn2cc(-c3cnn(C4CNC4)c3)cc(-c3ccc(N4CCN(Cc5ccccc5)CC4)nc3)c12 [Example 595, 6-(1-(azetidin-3-yl)-1H-pyrazol-4-yl)-4-(6-(4-benzylpiperazin-1-yl)pyridin-3-yl)pyrazolo[1,5-a]pyridine-3-carbonitrile dihydrochloride] | 
951 | CC(C)C1CCN(C(=O)N2CCN(c3ccc(-c4cc(-c5cnn(C)c5)cn5ncc(C#N)c45)cn3)CC2)C1 (centres unmarked) [Example 390, 4-(6-(4-(3-isopropylpyrrolidine-1-carbonyl)piperazin-1-yl)pyridin-3-yl)-6-(1-methyl-1H-pyrazol-4-yl)pyrazolo[1,5-a]pyridine-3-carbonitrile] | 
490 | Cn1cc(-c2cc(-c3ccc(N4CCN(CCc5ccccn5)CC4)nc3)c3c(C#N)cnn3c2)cn1 [Example 395, 6-(1-methyl-1H-pyrazol-4-yl)-4-(6-(4-(2-(pyridine-2-yl)ethyl)piperazin-1-yl)pyridin-3-yl)pyrazolo[1,5-a]pyridine-3-carbonitrile] | 
536 | Cc1cc(CN2CCN(c3ccc(-c4cc(-c5cnn(C)c5)cn5ncc(C#N)c45)cn3)CC2)no1 [Example 436, 6-(1-methyl-1H-pyrazol-4-yl)-4-(6-(4-((5-methylisoxazol-3-yl)methyl)piperazin-1-yl)pyridin-3-yl)pyrazolo[1,5-a]pyridine-3-carbonitrile] | 

The next lines start with the molecule.

Structure (SMILES) | IC50 [nM] | IC50 (10% FBS) [nM]
Cn1cc(C(=O)N2CCN(c3ccc(-c4cc(-c5cnn(C)c5)cn5ncc(C#N)c45)cn3)CC2)cn1 [Example 35, 6-(1-methyl-1H-pyrazol-4-yl)-4-(6-(4-(1-methyl-1H-pyrazole-4-carbonyl)piperazin-1-yl)pyridin-3-yl)pyrazolo[1,5-a]pyridine-3-carbonitrile 2,2,2-trifluoroacetate] |  | 437
CO[C@H]1CCN(C(=O)N2CCN(c3ccc(-c4cc(-c5ccn(C)n5)cn5ncc(C#N)c45)cn3)CC2)C1 [Example 274, (S)-4-(6-(4-(3-methoxypyrrolidine-1-carbonyl)piperazin-1-yl)pyridin-3-yl)-6-(1-methyl-1H-pyrazol-3-yl)pyrazolo[1,5-a]pyridine-3-carbonitrile] |  | ≥ 5000
Cn1cc(-c2cc(-c3ccc(N4CCN(C(=O)C(O)c5ccccc5F)CC4)nc3)c3c(C#N)cnn3c2)cn1 (centres unmarked) [Example 10, 4-(6-(4-(2-(2-fluorophenyl)-2-hydroxyacetyl)piperazin-1-yl)pyridin-3-yl)-6-(1-methyl-1H-pyrazol-4-yl)pyrazolo[1,5-a]pyridine-3-carbonitrile] |  | 47.4
CN(C)CC(=O)N1CC2CCC(C1)N2c1ccc(-c2cc(-c3cnn(C)c3)cn3ncc(Cl)c23)cn1 [Example 336, 1-(8-(5-(3-chloro-6-(1-methyl-1H-pyrazol-4-yl)pyrazolo[1,5-a]pyridin-4-yl)pyridin-2-yl)-3,8-diazabicyclo[3.2.1]octan-3-yl)-2-(dimethylamino)ethanone] |  | 614
Cn1cc(-c2cc(-c3ccc(N4CCN(C(=O)C(O)c5ccc(F)cc5F)CC4)nc3)c3ccnn3c2)cn1 (centres unmarked) [Example 317, 2-(2,4-difluorophenyl)-2-hydroxy-1-(4-(5-(6-(1-methyl-1H-pyrazol-4-yl)pyrazolo[1,5-a]pyridin-4-yl)pyridin-2-yl)piperazin-1-yl)ethanone] |  | ≥ 5000
Cc1nn(C)cc1C(=O)N1CCN(c2ccc(-c3cc(-c4cnn(C)c4)cn4ncc(C#N)c34)cn2)CC1 [Example 41, 4-(6-(4-(1,3-dimethyl-1H-pyrazole-4-carbonyl)piperazin-1-yl)pyridin-3-yl)-6-(1-methyl-1H-pyrazol-4-yl)pyrazolo[1,5-a]pyridine-3-carbonitrile 2,2,2-trifluoroacetate] |  | 871
Cn1cc(-c2cc(-c3ccc(N4CCN(C(=O)c5cc(C6CC6)[nH]n5)CC4)nc3)c3c(C#N)cnn3c2)cn1 [Example 370, 4-(6-(4-(5-cyclopropyl-1H-pyrazole-3-carbonyl)piperazin-1-yl)pyridin-3-yl)-6-(1-methyl-1H-pyrazol-4-yl)pyrazolo[1,5-a]pyridine-3-carbonitrile bis(2,2,2-trifluoroacetate)] |  | 29.8
